Assay results: patent publication US20070179060A1, “6-(Poly-substituted aryl)-4-aminopicolinates and their use as herbicides” (priority 2006, published 2007)

Columns and labels:
[1] = test system: lambsquarter (Chenopodium album); test: Postemergence herbicidal activity; type: in vivo; details: post-emergent, 140 g ai/ha, after 14 days; for pest or weed control at 140 g/ha: Chenopodium album, post-emergence, 336 h, read-out: % Control CHEAL
Outline: (§1)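 Compounds were applied postemergence by track sprayer delivering 187 L/ha, using a mixed organic/aqueous carrier containing crop oil concentrate and surfactant; solvent-blank sprays served as controls. Test plants were at the first to second true leaf stage after 7-21 days' greenhouse growth, were sub-irrigated after treatment, and were evaluated by probit analysis.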

[2] = test system: redroot pigweed (Amaranthus retroflexus); test: Postemergence herbicidal activity; type: in vivo; details: post-emergent, 140 g ai/ha, after 14 days; for pest or weed control at 140 g/ha: Amaranthus retroflexus, post-emergence, 336 h, read-out: % Control AMARE
Outline: as §1

[3] = test system: velvetleaf (Abutilon theophrasti); test: Postemergence herbicidal activity; type: in vivo; details: post-emergent, 140 g ai/ha, after 14 days; for pest or weed control at 140 g/ha: Abutilon theophrasti, post-emergence, 336 h, read-out: % Control ABUTH
Outline: as §1

Galium aparine = test: Postemergence herbicidal activity in cereal crops; type: in vivo; details: post-emergent, after 20-22 days
Procedure: (§2) When required to ensure good germination and healthy plants, a fungicide treatment and/or other chemical or physical treatment was applied. The plants were grown for 7-36 days in a greenhouse with an approximate 14 hour photoperiod which was maintained at about 18° C. during the day and 17° C. during the night. Nutrients and water were added on a regular basis and supplemental lighting was provided with overhead metal halide 1000-Watt lamps as necessary. The plants were employed for testing when they reached the second or third true leaf stage. […] The concentrated stock solutions obtained were diluted with 16 mL of an aqueous mixture containing acetone, water, isopropyl alcohol, DMSO, Agri-dex crop oil concentrate, and Triton® X-77 surfactant in a 64.7:26.0:6.7:2.0:0.7:0.01 v/v ratio to obtain spray solutions containing the highest application rates. […] Compound requirements are based upon a 12 mL application volume at a rate of 187 L/ha. Formulated compounds were applied to the plant material with an overhead Mandel track sprayer equipped with a […] nozzles calibrated to deliver 187 L/ha over an application area of 0.503 square meters at a spray height of 18 inches (43 cm) above average plant canopy height. Control plants were sprayed in the same manner with the blank. The treated plants and control plants were placed in a greenhouse as described above and watered by sub-irrigation to prevent wash-off of the test compounds.

Lamium purpureum = test: Postemergence herbicidal activity in cereal crops; type: in vivo; details: post-emergent, after 20-22 days
Procedure: as §2

Papaver rhoeas = test: Postemergence herbicidal activity in cereal crops; type: in vivo; details: post-emergent, after 20-22 days
Procedure: as §2

Veronica persica = test: Postemergence herbicidal activity in cereal crops; type: in vivo; details: post-emergent, after 20-22 days
Procedure: as §2

barley (Hordeum vulare) = test: Postemergence herbicidal activity in cereal crops; type: in vivo; details: crop, post-emergent, after 20-22 days
Procedure: as §2

[4] = test system: wheat (Triticum aestivum); test: Postemergence herbicidal activity in cereal crops; type: in vivo; details: crop, post-emergent, after 20-22 days
Procedure: as §2

[5] = test system: lambsquarter (Chenopodium album); test: Preemergence herbicidal activity; type: in vivo; details: Chenopodium album, pre-emergence, 480 h; pre-emergent, 140 g ai/ha, after 20-22 days; read-out: % Control CHEAL
From the text: (§3) Seeds of the desired test plant species were planted in a soil matrix prepared by mixing a loam soil (43 percent silt, 19 percent clay, and 38 percent sand, with a pH of about 8.1 and an organic matter content of about 1.5 percent) and sand in a 70 to 30 ratio. The soil matrix was contained in plastic pots with a surface area of 113 square centimeters. When required to ensure good germination and healthy plants, a fungicide treatment and/or other chemical or physical treatment was applied. […] Compound requirements are based upon a 12 mL application volume at a rate of 187 L/ha. Formulated compounds were applied to the plant material with an overhead Mandel track sprayer equipped with a […] nozzles calibrated to deliver 187 L/ha over an application area of 0.503 square meters at a spray height of 18 inches (43 cm) above the soil surface. Control plants were sprayed in the same manner with the solvent blank. The treated pots and control pots were placed in a greenhouse maintained with an approximate 15 hour photoperiod and temperatures of about 23-29° C. during the day and 22-28° C. during the night. Nutrients and water were added on a regular basis and supplemental lighting was provided with overhead metal halide 1000-watt lamps as necessary. The water was added by top-irrigation.

[6] = test system: redroot pigweed (Amaranthus retroflexus); test: Preemergence herbicidal activity; type: in vivo; details: Amaranthus retroflexus, pre-emergence, 480 h; pre-emergent, 140 g ai/ha, after 20-22 days; read-out: % Control AMARE
From the text: as §3

[7] = test system: velvetleaf (Abutilon theophrasti); test: Preemergence herbicidal activity; type: in vivo; details: Abutilon theophrasti, pre-emergence, 480 h; pre-emergent, 140 g ai/ha, after 20-22 days; read-out: % Control ABUTH
From the text: as §3

| melting point | Structure (SMILES) | pest or weed control at 140 g/ha [1] | pest or weed control at 140 g/ha [2] | pest or weed control at 140 g/ha [3] | pest or weed control at 140 g/ha [5] | pest or weed control at 140 g/ha [6] | pest or weed control at 140 g/ha [7] | also measured |
| --- | --- | --- | --- | --- | --- | --- | --- | --- |
| 177 to 178 °C (dec.) | CCOc1c(Cl)ccc(-c2cc(N)c(Cl)c(C(=O)O)n2)c1F [Compound 102, 4-Amino-3-chloro-6-(4-chloro-2-fluoro-3-ethoxyphenyl)pyridine-2-carboxylic acid] | 95% | 85% | 80% | 0% | 95% | 85% | – |
| 187 to 188 °C (dec.) | COCc1c(Cl)ccc(-c2cc(N)c(Cl)c(C(=O)O)n2)c1F [Compound 105, 4-Amino-3-chloro-6-(4-chloro-2-fluoro-3-methoxymethylphenyl)pyridine-2-carboxylic acid] | 85% | 98% | 95% | 95% | 100% | 100% | – |
| 202 to 203 °C (dec.) | Nc1cc(-c2ccc3c(c2F)OCO3)nc(C(=O)O)c1Cl [Compound 108, 4-Amino-3-chloro-6-(2-fluoro-3,4-methylenedioxyphenyl)pyridine-2-carboxylic acid] | 95% | 100% | 100% | 90% | 100% | 90% | – |
| 187 to 188 °C (dec.) | COc1c(Cl)ccc(-c2cc(N)c(Cl)c(C(=O)O)n2)c1Cl [Compound 110, 4-Amino-3-chloro-6-(2,4-dichloro-3-methoxyphenyl)pyridine-2-carboxylic acid] | 85% | 90% | 80% | 40% | 40% | 100% | – |
| 179 to 180 °C | Nc1c(F)c(-c2ccc3c(c2F)OCO3)nc(C(=O)O)c1Cl [Compound 115, 4-Amino-3-chloro-5-fluoro-6-(2-fluoro-3,4-methylenedioxyphenyl)pyridine-2-carboxylic acid] | 100% | 100% | 100% | 100% | 100% | 100% | – |
| 174 to 175 °C | CCN(CC)c1c(Cl)ccc(-c2cc(N)c(Cl)c(C(=O)O)n2)c1F [Compound 116, 4-Amino-3-chloro-6-[4-chloro-3-(diethylamino)-2-fluorophenyl]pyridine-2-carboxylic acid] | 100% | 90% | 80% | 75% | 100% | 100% | – |
| 192 to 193 °C | COc1c(Br)ccc(-c2cc(N)c(Cl)c(C(=O)O)n2)c1Cl [Compound 121, 4-Amino-6-(4-bromo-2-chloro-3-methoxyphenyl)-3-chloropyridine-2-carboxylic acid] | 90% | 95% | 100% | 100% | 100% | 100% | – |

Second part, the compound before the results:

| Structure (SMILES) | melting point | pest or weed control at 140 g/ha [1] | pest or weed control at 140 g/ha [2] | pest or weed control at 140 g/ha [3] | pest or weed control at 140 g/ha [5] | pest or weed control at 140 g/ha [6] | pest or weed control at 140 g/ha [7] | also measured |
| --- | --- | --- | --- | --- | --- | --- | --- | --- |
| COC(=O)c1nc(-c2ccc(C)c(OC)c2F)cc(N)c1Cl [Compound 36, 4-amino-3-chloro-6-(2-fluoro-3-methoxy-4-methylphenyl) pyridine-2-carboxylic acid, methyl ester] | – | – | – | – | – | – | – | % Control CHEAL [1]: 100%; % Control AMARE [2]: 100%; % Control ABUTH [3]: 100%; % Control GALAP (Galium aparine; 70 g ai/ha): 95%; % Control LAMPU (Lamium purpureum; 70 g ai/ha): 99%; % Control PAPRH (Papaver rhoeas; 70 g ai/ha): 99%; % Control VERPE (Veronica persica; 70 g ai/ha): 50%; % Control HORVS (barley (Hordeum vulare); 70 g ai/ha): 0%; % Control TRZAS ([4]; 70 g ai/ha): 5% |
| COC(=O)c1nc(-c2c(F)cc(C)c(OC)c2F)cc(N)c1Cl [Compound 51, 4-Amino-3-chloro-6-(2,6-difluoro-3-methoxy-4-methylphenyl)pyridine-2-carboxylic acid, methyl ester] | – | 100% | 100% | 100% | – | – | – | pest or weed control at 35 g/ha (Galium aparine; Galium aparine, post-emergence, 480 h, 35 g ai/ha, read-out: % Control GALAP): 95%; pest or weed control at 35 g/ha (Lamium purpureum; Lamium purpureum, post-emergence, 480 h, 35 g ai/ha, read-out: % Control LAMPU): 70%; pest or weed control at 35 g/ha (Papaver rhoeas; Papaver rhoeas, post-emergence, 480 h, 35 g ai/ha, read-out: % Control PAPRH): 100%; pest or weed control at 35 g/ha (Veronica persica; Veronica persica, post-emergence, 480 h, 35 g ai/ha, read-out: % Control VERPE): 30%; pest or weed control at 35 g/ha (barley (Hordeum vulare); Hordeum, post-emergence, 480 h, 35 g ai/ha, read-out: % Control HORVS): 0%; plant injury at 35 g/ha ([4]; Triticum aestivum, post-emergence, 480 h, 35 g ai/ha, read-out: % Control TRZAS): 0% |
| CN(C)c1c(Cl)cc(F)c(-c2cc(N)c(Cl)c(C(=O)O)n2)c1F [Compound 94, 4-Amino-3-chloro-6-(4-chloro-2,6-difluoro-3-dimethylaminophenyl)pyridine-2-carboxylic acid] | 171 to 172 °C | 100% | 100% | 100% | 100% | 100% | 100% | – |
| Cc1c(Cl)ccc(-c2cc(N)c(Cl)c(C(=O)O)n2)c1F [Compound 99, 4-Amino-3-chloro-6-(4-chloro-2-fluoro-3-methylphenyl)pyridine-2-carboxylic acid] | 179 to 181 °C (dec.) | 90% | 90% | 80% | 95% | 100% | 100% | – |
| COc1c(Cl)cc(F)c(-c2cc(N)c(Cl)c(C(=O)O)n2)c1F [Compound 133, 4-Amino-3-chloro-6-(4-chloro-2,6-difluoro-3-methoxyphenyl)pyridine-2-carboxylic acid] | – | – | – | – | – | – | – | pest or weed control at 17.5 g/ha (Galium aparine; Galium aparine, post-emergence, 480 h, 17.5 g ai/ha, read-out: % Control GALAP): 100%; pest or weed control at 17.5 g/ha (Lamium purpureum; Lamium purpureum, post-emergence, 480 h, 17.5 g ai/ha, read-out: % Control LAMPU): 99%; pest or weed control at 17.5 g/ha (Papaver rhoeas; Papaver rhoeas, post-emergence, 480 h, 17.5 g ai/ha, read-out: % Control PAPRH): 100%; pest or weed control at 17.5 g/ha (Veronica persica; Veronica persica, post-emergence, 480 h, 17.5 g ai/ha, read-out: % Control VERPE): 70%; pest or weed control at 17.5 g/ha (barley (Hordeum vulare); Hordeum, post-emergence, 480 h, 17.5 g ai/ha, read-out: % Control HORVS): 0%; plant injury at 17.5 g/ha ([4]; Triticum aestivum, post-emergence, 480 h, 17.5 g ai/ha, read-out: % Control TRZAS): 0% |
